In patent publication US11000531B2, “Methods of treating certain depressive disorders and delirium tremens” (MARINUS PHARMACEUTICALS INC., priority 2016, dated 2021):

Columns and labels:
[1] = Ganaxolone concentration reached in 30% Captisol solutions (HPLC); assay type: physicochemical; conditions: dry mixing method, after 90 hours of stirring
Procedure: 500 μl of 10% aqueous Polysorbate 80 solution in a 20 ml scintillation vial were combined with powdered ganaxolone (50 mg). The mixture was stirred to wet the ganaxolone. Solid Captisol (3.2 g), sufficient to form a 30% Captisol solution, was then added to the vial and the vial contents were mixed. Deionized water (8.0 g) was then added and the mixture was vigorously stirred at room temperature overnight to obtain a hazy solution. An aliquot was filtered through 0.2 μm syringe filter and ganaxolone concentration was assayed by HPLC to be 4.28 mg/ml.
Ganaxolone was vigorously stirred in 30% Captisol in the presence of 10% v/v ethanol overnight to obtain a 3.16 mg/ml ganaxolone solution.
Ganaxolone was vigorously stirred in 30% Captisol in the presence of 10% v/v glycerin overnight to obtain a 3.45 mg/ml ganaxolone solution.
Ganaxolone was vigorously stirred in 30% Captisol in the presence of 10% v/v propylene glycol overnight to obtain a 2.53 mg/ml ganaxolone solution.
Powdered ganaxolone (125 mg) was charged into 100 ml beaker. Captisol powder (7.9 g) was then added to the beaker. The mixture was mixed by stirring with a magnetic stir bar for 5 minutes. Deionized water (20.1 g) was weighed into a plastic cup. About half of the water was added into the beaker and the contents were vigorously stirred for 30 minutes to obtain a homogeneous mixture. […]

[2] = Ganaxolone solubility in water
[3] = test system: women suffering from postpartum depression; conditions: women with postpartum depression, cited from earlier work
[4] = human plasma; cited from earlier work

Row | Structure (SMILES) | ganaxolone concentration after prolonged stirring [1] | solubility [2] | mean HAM-D score lower than placebo-treated subjects ([3]; end of sixty hour intravenous infusion, baseline HAM-D greater than 25) | persistence of effects after infusion ([3]; after intravenous infusion) | half-life [4]
1 | CC(=O)[C@H]1CC[C@H]2[C@@H]3CC[C@H]4C[C@](C)(O)CC[C@]4(C)[C@H]3CC[C@]12C [Ganaxolone, 3α-hydroxy, 3β-methyl-5α-pregnan-20-one] | remained unchanged | < 1 µg/mL |  |  | 
2 | CC(=O)[C@H]1CC[C@H]2[C@@H]3CC[C@H]4C[C@H](O)CC[C@]4(C)[C@H]3CC[C@]12C [Allopregnanolone, 3α,5α-tetrahydroprogesterone] |  |  | 12 points | 30 days | about 45 minutes
